Data: PubChem BioAssay (NCI)
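Exposure lasted 48 hours, with cells grown in 96-well plates and compounds tested at five concentrations. GI50 = concentration required for 50% inhibition of growth. TGI denotes the concentration required for complete inhibition of growth.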

Experiments:
Test in all cases: NCI anticancer screen, dose series, 48 h
EKVX NSCLC = tested on: EKVX NSCLC
A498 renal = tested on: A498 renal
SF-295 CNS = tested on: SF-295 CNS
NCI-H23 lung = tested on: NCI-H23 lung
UACC-257 melanoma = tested on: UACC-257 melanoma
SW-620 colon = tested on: SW-620 colon
U251 CNS = tested on: U251 CNS
ACHN renal = tested on: ACHN renal
RXF 393 renal = tested on: RXF 393 renal
CAKI-1 renal = tested on: CAKI-1 renal
HOP-18 NSCLC = tested on: HOP-18 NSCLC
M14 melanoma = tested on: M14 melanoma
SNB-78 CNS = tested on: SNB-78 CNS
LOX IMVI melanoma = tested on: LOX IMVI melanoma
HT29 colon = tested on: HT29 colon
COLO 205 colon = tested on: COLO 205 colon
SN12C renal = tested on: SN12C renal
MOLT-4 leukemia = tested on: MOLT-4 leukemia
XF 498 CNS = tested on: XF 498 CNS
IGROV1 ovarian = tested on: IGROV1 ovarian
SNB-19 CNS = tested on: SNB-19 CNS
DMS 273 small cell lung = tested on: DMS 273 small cell lung
UACC-62 melanoma = tested on: UACC-62 melanoma
SF-539 CNS = tested on: SF-539 CNS
SK-OV-3 ovarian = tested on: SK-OV-3 ovarian
OVCAR-8 ovarian = tested on: OVCAR-8 ovarian
KM20L2 colon = tested on: KM20L2 colon
TK-10 renal = tested on: TK-10 renal
NCI-H460 lung = tested on: NCI-H460 lung
HCT-116 colon = tested on: HCT-116 colon
A549 NSCLC = tested on: A549 NSCLC
OVCAR-4 ovarian = tested on: OVCAR-4 ovarian
SK-MEL-5 melanoma = tested on: SK-MEL-5 melanoma
SK-MEL-28 melanoma = tested on: SK-MEL-28 melanoma
LXFL 529 NSCLC = tested on: LXFL 529 NSCLC
OVCAR-3 ovarian = tested on: OVCAR-3 ovarian
HOP-92 NSCLC = tested on: HOP-92 NSCLC
HCT-15 colon = tested on: HCT-15 colon
DLD-1 colon = tested on: DLD-1 colon
HL-60(TB) leukemia = tested on: HL-60(TB) leukemia
HCC-2998 colon = tested on: HCC-2998 colon
NCI-H522 lung = tested on: NCI-H522 lung
M19-MEL melanoma = tested on: M19-MEL melanoma
RPMI-8226 leukemia = tested on: RPMI-8226 leukemia
786-0 renal = tested on: 786-0 renal
KM12 colon = tested on: KM12 colon
K-562 leukemia = tested on: K-562 leukemia
NCI-H226 lung = tested on: NCI-H226 lung
SK-MEL-2 melanoma = tested on: SK-MEL-2 melanoma
UO-31 renal = tested on: UO-31 renal
MALME-3M melanoma = tested on: MALME-3M melanoma
SR leukemia = tested on: SR leukemia
SF-268 CNS = tested on: SF-268 CNS
HOP-62 NSCLC = tested on: HOP-62 NSCLC
SNB-75 CNS = tested on: SNB-75 CNS
CCRF-CEM leukemia = tested on: CCRF-CEM leukemia
OVCAR-5 ovarian = tested on: OVCAR-5 ovarian

Compound: O=c1cccccc1[O-].O=c1cccccc1[O-].[O]=[U+2]=[O]
- TGI (EKVX NSCLC): > 100 µM
- GI50 (A498 renal): 25.1 µM
- TGI (A498 renal): 45.8 µM
- TGI (SF-295 CNS): 41.5 µM
- TGI (NCI-H23 lung): > 100 µM
- TGI (UACC-257 melanoma): 68.5 µM
- TGI (SW-620 colon): > 100 µM
- GI50 (U251 CNS): 25.9 µM
- TGI (U251 CNS): 72 µM
- TGI (ACHN renal): 48 µM
- TGI (RXF 393 renal): 41.2 µM
- TGI (CAKI-1 renal): 56.4 µM
- GI50 (HOP-18 NSCLC): 41 µM
- TGI (HOP-18 NSCLC): 97 µM
- TGI (M14 melanoma): 73.2 µM
- GI50 (SNB-78 CNS): 28.7 µM
- TGI (SNB-78 CNS): 67.6 µM
- TGI (LOX IMVI melanoma): 95 µM
- TGI (HT29 colon): > 100 µM
- TGI (COLO 205 colon): 60.8 µM
- GI50 (SN12C renal): 27.2 µM
- TGI (SN12C renal): 63.2 µM
- TGI (MOLT-4 leukemia): 82 µM
- GI50 (XF 498 CNS): 25.7 µM
- TGI (XF 498 CNS): 47.3 µM
- TGI (IGROV1 ovarian): 50.9 µM
- TGI (SNB-19 CNS): 82.2 µM
- GI50 (DMS 273 small cell lung): 22.6 µM
- TGI (DMS 273 small cell lung): 58.3 µM
- TGI (UACC-62 melanoma): 41.6 µM
- GI50 (SF-539 CNS): 20.6 µM
- TGI (SF-539 CNS): 43.1 µM
- TGI (SK-OV-3 ovarian): 74.5 µM
- TGI (OVCAR-8 ovarian): 99.6 µM
- GI50 (KM20L2 colon): 32 µM
- TGI (KM20L2 colon): > 100 µM
- TGI (TK-10 renal): 57.3 µM
- TGI (NCI-H460 lung): > 100 µM
- TGI (HCT-116 colon): 98.4 µM
- TGI (A549 NSCLC): > 100 µM
- TGI (OVCAR-4 ovarian): 57 µM
- TGI (SK-MEL-5 melanoma): > 100 µM
- TGI (SK-MEL-28 melanoma): 61 µM
- GI50 (LXFL 529 NSCLC): 28.6 µM
- TGI (LXFL 529 NSCLC): 82.6 µM
- TGI (OVCAR-3 ovarian): 36.8 µM
- TGI (HOP-92 NSCLC): 70.6 µM
- TGI (HCT-15 colon): > 100 µM

Compound: COC(=O)/C(=N\NC(=O)C[N+](C)(C)C)C(C(=O)OC)C(=O)C(=O)Nc1ccccc1C(N)=O (configuration not stated)
- TGI (DLD-1 colon): > 100 µM
- TGI (HL-60(TB) leukemia): > 100 µM
- TGI (EKVX NSCLC): > 100 µM
- TGI (A498 renal): > 100 µM
- TGI (SF-295 CNS): > 100 µM
- TGI (HCC-2998 colon): > 100 µM
- TGI (NCI-H23 lung): > 100 µM
- TGI (NCI-H522 lung): > 100 µM
- TGI (UACC-257 melanoma): > 100 µM
- TGI (M19-MEL melanoma): > 100 µM
- TGI (SW-620 colon): > 100 µM
- TGI (U251 CNS): > 100 µM
- TGI (ACHN renal): > 100 µM
- TGI (RXF 393 renal): > 100 µM
- TGI (CAKI-1 renal): > 100 µM
- TGI (HOP-18 NSCLC): > 100 µM
- TGI (M14 melanoma): > 100 µM
- TGI (SNB-78 CNS): > 100 µM
- TGI (RPMI-8226 leukemia): > 100 µM
- TGI (LOX IMVI melanoma): > 100 µM
- TGI (HT29 colon): > 100 µM
- TGI (COLO 205 colon): > 100 µM
- TGI (SN12C renal): > 100 µM
- TGI (786-0 renal): > 100 µM
- TGI (MOLT-4 leukemia): > 100 µM
- TGI (KM12 colon): > 100 µM
- TGI (K-562 leukemia): > 100 µM
- TGI (NCI-H226 lung): > 100 µM
- TGI (SK-MEL-2 melanoma): > 100 µM
- TGI (IGROV1 ovarian): > 100 µM
- TGI (SNB-19 CNS): > 100 µM
- TGI (DMS 273 small cell lung): > 100 µM
- TGI (UACC-62 melanoma): > 100 µM
- TGI (SF-539 CNS): > 100 µM
- TGI (SK-OV-3 ovarian): > 100 µM
- TGI (KM20L2 colon): > 100 µM
- TGI (TK-10 renal): > 100 µM
- TGI (UO-31 renal): > 100 µM
- TGI (MALME-3M melanoma): > 100 µM
- TGI (NCI-H460 lung): > 100 µM
- TGI (HCT-116 colon): > 100 µM
- TGI (A549 NSCLC): > 100 µM
- TGI (OVCAR-4 ovarian): > 100 µM
- TGI (SR leukemia): > 100 µM
- TGI (SK-MEL-5 melanoma): > 100 µM
- TGI (SK-MEL-28 melanoma): > 100 µM
- TGI (SF-268 CNS): > 100 µM
- TGI (LXFL 529 NSCLC): > 100 µM
- TGI (HOP-62 NSCLC): > 100 µM
- TGI (OVCAR-3 ovarian): > 100 µM
- TGI (SNB-75 CNS): > 100 µM
- TGI (CCRF-CEM leukemia): > 100 µM
- TGI (HCT-15 colon): > 100 µM
- TGI (OVCAR-5 ovarian): > 100 µM
